In patent US20070092460A1, “Silylated compounds as precursors for self-tanning compositions” (priority 2000, published 2007):

Test: in vitro colour development test with lysine solution (Bobin et al.)
Method: 0.02 mol/l of lysine are dissolved in a phosphate buffer system in accordance with DIN 19268 (pH 7). 10 ml of this solution are treated with 0.002 mol of 1,3-bis(trimethylsiloxy)-2-propanone and the mixture is stirred at 32-35° C. for 72 h.
As comparison, 10 ml of the lysine solution are treated with 0.002 mol of dihydroxyacetone and stirred at 32-35° C. for 72 h.

## C[Si](C)(C)OCC(=O)CO[Si](C)(C)C [1,3-bis(trimethylsiloxy)-2-propanone, 1,3-bis(Trimethylsiloxy)-2-propanone]
0.002 mol substance in 10 ml of 0.02 mol/l lysine in phosphate buffer pH 7, stirred at 32-35° C. for 72 h
  brown coloration: comparable brown coloration
Compared with dihydroxyacetone, lysine in phosphate buffer pH 7, 32-35° C.
  rate of development of the brown coloration: develops more slowly
